Results: US20240285500A1, “HAIR GROWTH AGENT” (ADJUVANT HOLDINGS CO., LTD., priority 2021, published 2024)

Legend:
[1] = tested on: VEGF gene expression in human dermal papilla cells; experiment: Evaluation of human dermal papilla cell VEGF gene expression (real-time PCR); type: cell-based; details: 72 hours
Description: Exemplary Test 1: Evaluation of Human Dermal Papilla Cell VEGF Gene Expression
The VEGF gene is expressed in dermal papilla cells, and contributes to expression of such effects as increase in hair shaft diameter and improving maximum hair shaft length and improving hair shaft elongation rate and hair shaft growth promotion at head hair, beard, eyebrows, and/or eyelashes. Human dermal papilla cells were therefore used, and evaluation was carried out with respect to increase in VEGF gene expression for the respective components.
Human dermal papilla cells (Catalog No. CA60205a; derived from person; Toyobo Co., Ltd. (Japan)) were purchased, testing and evaluation being carried out with maintenance and culture of cells being performed as described in the protocol. […]
A 24-well plate was seeded with human dermal papilla cells so as to obtain 6×10^3 thereof per well. […] The GAPDH gene was used as an internal standard, the amount of VEGF gene expression being calculated relative to the negative control group. […]

[2] = tested on: vascular endothelial growth factor (VEGF) expression in human dermal papilla cells; details: cited from earlier work

For `CCCCCCCCCCCCCC[C@@H](O)[C@@H](O)[C@@H](N)CO` [Working Example 1, phytosphingosine], the “change in amount of expression of the VEGF gene as compared with the control group” value ([1]; vs control group at which nothing had been added, GAPDH internal standard, FIG. 1) was “increase in dosage-dependent fashion in the amount of expression of the VEGF gene”.
In the case of `Nc1ncnc2c1ncn2[C@@H]1O[C@H](CO)[C@@H](O)[C@H]1O` [adenosine], the “expression of vascular endothelial growth factor (VEGF)” value [2] is listed as “promotes expression of vascular endothelial growth factor (VEGF)”.
With `CCCCCCCCCCCCCC[C@@H](O)[C@@H](O)[C@@H](N)CO` [phytosphingosine] the “amount of expression of the VEGF gene compared with Comparative Example 1” value ([1]; increased amount of phytosphingosine vs Comparative Example 1, FIG. 1) was “significantly greater”.
